Results: ChEMBL document CHEMBL1201862, “PubChem BioAssay data set” (2004)
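Each compound was tested at five concentrations against cells in 96-well plates for 48 hours. GI50 is the concentration that inhibits growth by half.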 Calls of active or inactive are those of the source. Rule as the data show it: active = GI50 up to about 1.1 µM and inactive = higher.

Assays:
Experiment in all cases: DTP human tumour cell line panel, 48 h
CAKI-1 = system: CAKI-1
A498 = system: A498
NCI-H522 = system: NCI-H522
OVCAR-4 = system: OVCAR-4
TK-10 = system: TK-10
PC-3 = system: PC-3
SK-MEL-2 = system: SK-MEL-2
Hs-578T = system: Hs-578T
BT-549 = system: BT-549
OVCAR-3 = system: OVCAR-3
MCF7 = system: MCF7
Malme-3M = system: Malme-3M
SF-539 = system: SF-539
NCI-H460 = system: NCI-H460
M14 = system: M14
ACHN = system: ACHN
RPMI-8226 = system: RPMI-8226
SW-620 = system: SW-620
UACC-62 = system: UACC-62
HL-60 = system: HL-60

SMILES	GI50 (CAKI-1)	GI50 (A498)	GI50 (NCI-H522)	GI50 (OVCAR-4)	GI50 (TK-10)	GI50 (PC-3)	GI50 (SK-MEL-2)	GI50 (Hs-578T)	GI50 (BT-549)	GI50 (OVCAR-3)	GI50 (MCF7)	GI50 (Malme-3M)	GI50 (SF-539)	GI50 (NCI-H460)	GI50 (M14)	GI50 (ACHN)	GI50 (RPMI-8226)	GI50 (SW-620)	GI50 (UACC-62)	GI50 (HL-60)
Cc1cc2nc3[nH]c4c(Cl)cc(Cl)cc4c3nc2cc1C	> 100 µM (inactive)	> 100 µM (inactive)	> 100 µM (inactive)	> 100 µM (inactive)	17.3 µM (inactive)	> 100 µM (inactive)	> 100 µM (inactive)	> 100 µM (inactive)	98.4 µM (inactive)	> 100 µM (inactive)	> 100 µM (inactive)	> 100 µM (inactive)	36.5 µM (inactive)	> 100 µM (inactive)	> 100 µM (inactive)	> 100 µM (inactive)	> 100 µM (inactive)	> 100 µM (inactive)	84.7 µM (inactive)	> 100 µM (inactive)
CS(=O)(=O)N1CC(CCl)c2ccc(NO)cc21 (stereo not given)	12.6 µM (inactive)	15.2 µM (inactive)	4.17 µM (inactive)	17.5 µM (inactive)	21.3 µM (inactive)	12 µM (inactive)	17.7 µM (inactive)	23.1 µM (inactive)	12 µM (inactive)	11.7 µM (inactive)	8.3 µM (inactive)	19.1 µM (inactive)	10.2 µM (inactive)	14.9 µM (inactive)	16.2 µM (inactive)	7.94 µM (inactive)	4.5 µM (inactive)	12.6 µM (inactive)	13.6 µM (inactive)	1.96 µM (inactive)
COc1cccc(/N=C/c2cc(OC)c(OC)c(OC)c2)c1	> 100 µM (inactive)	> 100 µM (inactive)	> 100 µM (inactive)	> 79.6 µM (inactive)	> 100 µM (inactive)	> 100 µM (inactive)	> 85.1 µM (inactive)	> 100 µM (inactive)	72.6 µM (inactive)	1 µM (active)	56.9 µM (inactive)	> 100 µM (inactive)	> 100 µM (inactive)	64.9 µM (inactive)	36.2 µM (inactive)	20.8 µM (inactive)	> 100 µM (inactive)	> 100 µM (inactive)	1.75 µM (inactive)	> 100 µM (inactive)
C/C(=N/NC(=S)Nc1cccc(C)c1)c1ccccn1	< 0.0532 µM (active)	1.56 µM (inactive)	0.238 µM (active)	1.98 µM (inactive)	0.274 µM (active)	< 0.01 µM (active)	1.68 µM (inactive)	3.82 µM (inactive)	3.87 µM (inactive)	< 0.01 µM (active)	< 0.01 µM (active)	0.319 µM (active)	1.57 µM (inactive)	0.284 µM (active)	< 0.013 µM (active)	< 0.0481 µM (active)	< 0.01 µM (active)	< 0.01 µM (active)	0.331 µM (active)	< 0.01 µM (active)
O=C(O)CN(CC(=O)O)Cc1cc(C#Cc2ccc(C#Cc3ccccc3)cc2)cc(CN(CC(=O)O)CC(=O)O)n1	10.6 µM (inactive)	40.6 µM (inactive)	17.2 µM (inactive)	10.2 µM (inactive)	17.5 µM (inactive)	4.12 µM (inactive)	29.2 µM (inactive)	46.8 µM (inactive)	12.3 µM (inactive)	9.02 µM (inactive)	16.5 µM (inactive)	31 µM (inactive)	20.7 µM (inactive)	17.7 µM (inactive)	22.9 µM (inactive)	32 µM (inactive)	17.1 µM (inactive)	15.7 µM (inactive)	12.4 µM (inactive)	12.9 µM (inactive)
Cc1cnc2c(c1)C(=O)C1=C(C2=O)C2OC(=O)CC2OC1(C)C (stereo not given)	0.12 µM (active)	1.83 µM (inactive)	0.0525 µM (active)	0.159 µM (active)	0.735 µM (active)	0.16 µM (active)	0.964 µM (active)	0.301 µM (active)	0.185 µM (active)	< 0.01 µM (active)	0.0533 µM (active)	0.0736 µM (active)	0.237 µM (active)	0.76 µM (active)	0.254 µM (active)	0.107 µM (active)	0.188 µM (active)	0.0782 µM (active)	0.179 µM (active)	0.0148 µM (active)
